Experimental data as given in patent US20140303216A1, “COMPOSITIONS AND METHODS FOR INDUCING DISRUPTION OF BLOOD VASCULATURE AND FOR REDUCING ANGIOGENESIS” (BOARD OF REGENTS, THE UNIVERSITY OF TEXAS SYSTEM, priority 2011, published 2014).

Key:
[1] = system: HT1080 human fibrosarcoma xenograft; experiment: HT1080 human fibrosarcoma xenograft model; type: in vivo, athymic Cre nu/nu mice; conditions: TBZ 50 mg/kg
Description: Specific pathogen-free athymic Cre Nu/nu mice were purchased from Charles River Laboratories. The HT-1080 human fibrosarcoma cell line was obtained from the American Type Culture Collection (ATCC). HT-1080 cells were cultured in DMEM (Gibco) containing 10% fetal bovine serum (FBS, Gibco) in tissue culture flasks at 37° C. in a humidified atmosphere of 5% CO2. In order to generate a mouse xenograft model, a suspension of the HT-1080 cells (3×10^6 in 50p1 PBS) mixed with an equal volume of Matrigel (BD Bioscience) was subcutaneously implanted into the flank region of 7-8 week old female mice. Upon establishment of tumors (approx. 40 mm^3), mice were given intraperitoneal injections of 1 mg thiabendazole (Sigma-Aldrich), suspended in 20 μl 100% DMSO. As a control, an equal volume of DMSO was injected in the same manner. Tumor growth was monitored by measuring the length and width of each tumor using digital calipers, and the tumor volume in mm^3 calculated by the formula: Volume=(width)^2×length/2. Upon a tumor reaching the maximum size permitted by the Institutional Animal Care and Use Committee (1.5 cm in diameter), the mouse was sacrificed, and the tumor excised. […] Control cells received 1% DMSO.

[2] = rats; cited from earlier work

## c1ccc2[nH]c(-c3cscn3)nc2c1 [TBZ, 4-(1H-1,3-benzodiazol-2-yl)-1,3-thiazole]
[1]
  tumor microvessel density in xenografts (CD31 staining): significantly impair
[1]; intraperitoneal, 27 d
  xenograft growth, time course of tumor size and final tumor mass: significantly slowed
[2]
  effect on fertility: does not appear to affect fertility
